Results on 69 compounds are retold here after patent publication US8778966B2, “Quinolinone derivatives as PARP and tank inhibitors” (Janssen Pharmaceutica, NV, priority 2007, dated 2014).

Each structure is given as a SMILES string.

The target of the assay is T1, Human PARP-1 enzyme (Homo sapiens, UniProt P09874).
T1 construct: purchased Trevigen
T1 sequence (P09874 whole entry): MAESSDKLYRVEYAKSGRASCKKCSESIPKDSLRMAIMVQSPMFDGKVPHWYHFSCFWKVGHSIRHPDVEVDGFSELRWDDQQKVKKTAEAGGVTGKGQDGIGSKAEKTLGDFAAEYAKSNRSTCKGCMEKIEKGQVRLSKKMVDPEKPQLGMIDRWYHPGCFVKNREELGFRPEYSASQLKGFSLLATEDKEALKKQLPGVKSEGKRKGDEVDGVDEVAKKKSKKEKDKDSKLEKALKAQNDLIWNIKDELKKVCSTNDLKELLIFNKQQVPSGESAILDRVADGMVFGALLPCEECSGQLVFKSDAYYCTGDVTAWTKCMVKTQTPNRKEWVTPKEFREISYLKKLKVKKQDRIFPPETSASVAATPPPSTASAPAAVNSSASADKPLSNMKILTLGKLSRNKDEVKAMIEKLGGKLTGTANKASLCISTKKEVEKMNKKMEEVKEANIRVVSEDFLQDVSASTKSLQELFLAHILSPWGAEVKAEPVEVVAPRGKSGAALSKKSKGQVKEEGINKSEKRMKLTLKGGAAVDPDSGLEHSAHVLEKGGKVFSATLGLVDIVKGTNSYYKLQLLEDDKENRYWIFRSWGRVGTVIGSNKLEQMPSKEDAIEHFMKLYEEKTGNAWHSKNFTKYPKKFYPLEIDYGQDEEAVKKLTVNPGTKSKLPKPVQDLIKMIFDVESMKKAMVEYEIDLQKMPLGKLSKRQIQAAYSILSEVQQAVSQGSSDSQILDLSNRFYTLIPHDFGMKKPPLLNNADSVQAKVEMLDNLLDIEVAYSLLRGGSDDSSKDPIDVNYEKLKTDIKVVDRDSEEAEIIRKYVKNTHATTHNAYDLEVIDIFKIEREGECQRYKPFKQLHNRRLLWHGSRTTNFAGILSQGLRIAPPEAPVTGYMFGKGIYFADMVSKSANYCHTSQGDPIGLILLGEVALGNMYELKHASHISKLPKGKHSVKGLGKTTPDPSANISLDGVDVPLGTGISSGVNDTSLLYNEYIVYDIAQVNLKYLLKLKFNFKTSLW
Nature of the assay: In vitro Scintillation Proximity Assay (SPA) for PARP-1 inhibitory activity. The class given is biochemical. To be noted: read-out: in vitro SPA assay PARP-1 pIC50 (converted). The procedure, abridged: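 SPA assay: nicked-DNA-activated PARP-1 (0.1–0.2 μg/ml) ADP-ribosylates biotinylated histones (2 μg/ml) using [3H]-NAD+, 20 min at RT in Tris pH 8/DTT/MgCl2, stopped with 2 mM NAD+. Blank-subtracted cpm expressed as % control; IC50 by linear interpolation, reported as pIC50 (10−5 to 3×10−9 M tested).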
For `CCc1cc2ccc(C(C)(C#N)Cc3nc(C#N)cc(OC)n3)cc2[nH]c1=O` (single isomer, unassigned) [Compound 204], the IC50 is 39.8 nM.

For `CCc1cc2c(OC)cc(C(C)(C#N)Cc3nc(OC)cc(OC)n3)cc2[nH]c1=O` (single isomer, unassigned) [Compound 230], the IC50 was 63.1 nM. The figure for `CCc1cc2ccc([C@@](C)(C#N)CCOc3ccc(C#N)cc3)cc2[nH]c1=O` (single isomer, unassigned) [Compound 273] is 79.4 nM; for `CCc1cc2ccc([C@](C)(C#N)CCOc3ccc(C#N)cc3)cc2[nH]c1=O` (single isomer, unassigned) [Compound 275] it is 50.1 nM. The figure for `CCc1cc2ccc([C@](C)(C#N)Cc3cccc(/C=C/S(C)(=O)=O)c3)cc2[nH]c1=O` (single isomer, unassigned) [Compound 291] is 25.1 nM; for `CCc1cc2ccc([C@@](C)(C#N)Cc3cccc(C#CCO)c3)cc2[nH]c1=O` (single isomer, unassigned) [Compound 295] it is 25.1 nM; for `CCc1cc2ccc([C@](C)(C#N)Cc3cccc(C#CCO)c3)cc2[nH]c1=O` (single isomer, unassigned) [Compound 296] it is 31.6 nM. The value for `CCc1cc2ccc([C@@](C)(C#N)Cc3cc(OC)nc(C)n3)cc2[nH]c1=O` (single isomer, unassigned) [Compound 361] was 126 nM; that for `CCc1cc2ccc([C@](C)(C#N)Cc3cc(OC)nc(C)n3)cc2[nH]c1=O` (single isomer, unassigned) [Compound 362] was 631 nM. Consider `Cc1cc2ccc([C@@](C)(C#N)C3CCc4ccccc43)cc2[nH]c1=O` (single isomer, unassigned) [Compound 385], for which the IC50 is 100 nM. The figure for `Cc1cc2ccc([C@](C)(C#N)C3CCc4ccccc43)cc2[nH]c1=O` (single isomer, unassigned) [Compound 386] is 126 nM. The value for `CCc1cc2ccc(C(C)(C#N)Cc3cccc(OCCCN4CCNCC4)c3)cc2[nH]c1=O` (stereo not drawn) [Compound 25] was 1580 nM. Take `CCc1cc2ccc(C(C#N)(Cc3ccccc3)c3ccc(C#N)cc3)cc2[nH]c1=O` (stereo not drawn) [Compound 26]: the IC50 was 1580 nM. The value for `CCc1cc2ccc(C(C#N)(Cc3ccccc3)c3ccccc3)cc2[nH]c1=O` (stereo not drawn) [Compound 27] was 1000 nM; that for `CCc1cc2ccc(C(C#N)(Cc3ccccc3)C3CC3)cc2[nH]c1=O` (stereo not drawn) [Compound 29] was 631 nM. The figure for `CCc1cc2ccc(C(C#N)(Cc3ccccc3)C(C)C)cc2[nH]c1=O` (stereo not drawn) [Compound 30] is 3160 nM; for `CCCC(C#N)(Cc1ccccc1)c1ccc2cc(CC)c(=O)[nH]c2c1` (stereo not drawn) [Compound 31] it is 2000 nM. The figure for `CCc1cc2ccc(C(C)(C#N)Cc3cc(OC)ccc3F)cc2[nH]c1=O` (stereo not drawn) [Compound 171] is 20 nM; for `CCc1cc2ccc(C(C)(C#N)Cc3cccc(-c4ccc[nH]4)c3)cc2[nH]c1=O` (stereo not drawn) [Compound 176] it is 50.1 nM. For the compound `CCc1cc2ccc(C(C)(C#N)Cc3cccc(CCS(C)(=O)=O)c3)cc2[nH]c1=O` (stereo not drawn) [Compound 178], the IC50 was 63.1 nM. For the compound `Cc1cc2ccc(C(C)(C#N)Cc3cccc(C=Cc4ccccc4)c3)cc2[nH]c1=O` (stereo not drawn) [Compound 179], the IC50 was 200 nM.

Turning to `CCc1cc2ccc(C(C)(C#N)Cc3cccc(/C=N/OC)c3)cc2[nH]c1=O` (stereo not drawn) [Compound 185], the IC50 was 20 nM. Take `CCc1cc2ccc(C(C)(C#N)Cc3cccc(C(=N)NO)c3)cc2[nH]c1=O` (stereo not drawn) [Compound 186]: the IC50 is 39.8 nM. As to `Cc1cc2ccc(C(C)(C#N)Cc3cccc(Oc4ccc(F)cc4)c3)cc2[nH]c1=O` (stereo not drawn) [Compound 192], the IC50 was 398 nM. The figure for `CCc1cc2ccc(C(C)(C#N)Cc3cccc(OCCCC#N)c3)cc2[nH]c1=O` (stereo not drawn) [Compound 194] is 25.1 nM. The value for `CCc1cc2ccc(C(C)(C#N)Cc3cccc(OCCC#N)c3)cc2[nH]c1=O` (stereo not drawn) [Compound 195] was 39.8 nM; that for `C#CCOc1cccc(CC(C)(C#N)c2ccc3cc(CC)c(=O)[nH]c3c2)c1` (stereo not drawn) [Compound 196] was 25.1 nM.

In the case of `CCc1cc2ccc(C(C)(C#N)COCc3ccccc3)cc2[nH]c1=O` (stereo not drawn) [Compound 197], the IC50 was 100 nM. The figure for `CCc1cc2ccc(C(C)(C#N)Cc3cccc(OCCS(C)(=O)=O)c3)cc2[nH]c1=O` (stereo not drawn) [Compound 201] is 25.1 nM; for `CCc1cc2ccc(C(C)(C#N)Cc3nc(Cl)cc(OC)n3)cc2[nH]c1=O` (stereo not drawn) [Compound 202] it is 79.4 nM; for `CCc1cc2ccc(C(C)(C#N)Cc3nc(N(C)C)cc(N(C)C)n3)cc2[nH]c1=O` (stereo not drawn) [Compound 205] it is 79.4 nM. With `CCc1cc2ccc(C(C)(C#N)Cc3cccc(N4CCC(N(C)C)C4)n3)cc2[nH]c1=O` (stereo not drawn) [Compound 209], the IC50 is 50.1 nM. With `CCc1cc2ccc(C(C)(C#N)Cc3cccc(C#Cc4cncn4C)n3)cc2[nH]c1=O` (stereo not drawn) [Compound 217], the IC50 is 79.4 nM. The value for `CCc1cc2ccc(C(C)(C#N)Cc3cccc(N(C)CCc4ccccc4)n3)cc2[nH]c1=O.Cl` (stereo not drawn) [Compound 220] was 398 nM; that for `CCc1cc2ccc(C(C)(C#N)Cc3cccc(C#N)[n+]3[O-])cc2[nH]c1=O` (stereo not drawn) [Compound 228] was 50.1 nM; that for `CCc1cc2c(OC)cc(C(C)(C#N)Cc3nc(OC)cc(OC)n3)cc2[nH]c1=O` (stereo not drawn) [Compound 229] was 63.1 nM. The value for `CCc1cc2ccc(C(C)(C#N)CN3CCN(c4ccccn4)CC3)cc2[nH]c1=O` (stereo not drawn) [Compound 233] was 50.1 nM; that for `Cc1nc(-c2ccccc2)sc1CC(C)(C#N)c1ccc2cc(C)c(=O)[nH]c2c1` (stereo not drawn) [Compound 235] was 126 nM. On to `CCc1cc2ccc(C(C)(C#N)Cc3cccc4c3CCN4)cc2[nH]c1=O` (stereo not drawn) [Compound 237], for which the IC50 was 25.1 nM. The figure for `CCc1cc2ccc(C(C)(C#N)Cc3cccc(C(=O)OC(C)C)c3)cc2[nH]c1=O` (stereo not drawn) [Compound 255] is 50.1 nM; for `Cc1cc2ccc(C(C)(C#N)Cc3cccc(I)c3)cc2[nH]c1=O` (stereo not drawn) [Compound 256] it is 126 nM. The figure for `CCc1cc2ccc(C(C)(C#N)Cc3cccc(NC)c3)cc2[nH]c1=O` (stereo not drawn) [Compound 257] is 79.4 nM. With `CCc1cc2ccc(C(C)(C#N)Cc3cc(Br)cc(N(C)C)c3)cc2[nH]c1=O` (stereo not drawn) [Compound 260], the IC50 was 79.4 nM. The value for `Cc1cc2ccc(C(C)(C#N)Cc3cccc(OCC4CCOCC4)c3)cc2[nH]c1=O` (stereo not drawn) [Compound 261] was 100 nM. The figure for `CCc1cc2ccc(C(C)(C#N)Cc3cc(F)ccc3F)cc2[nH]c1=O` (stereo not drawn) [Compound 280] is 50.1 nM; for `CCc1cc2ccc(C(C)(C#N)Cc3ccc(F)c(F)c3)cc2[nH]c1=O` (stereo not drawn) [Compound 281] it is 39.8 nM; for `CCc1cc2ccc(C(C)(C#N)Cc3cc(C(F)(F)F)ccc3F)cc2[nH]c1=O` (stereo not drawn) [Compound 283] it is 79.4 nM. Regarding `CCOc1cccc(CC(C)(C#N)c2ccc3cc(CC)c(=O)[nH]c3c2)c1` (stereo not drawn) [Compound 285], the IC50 is 50.1 nM. The value for `CCc1cc2ccc(C(C)(C#N)Cc3cccc(OC)c3F)cc2[nH]c1=O` (stereo not drawn) [Compound 286] was 25.1 nM; that for `CCc1cc2ccc(C(C)(C#N)Cc3cc(C(C)C)ccc3OC)cc2[nH]c1=O` (stereo not drawn) [Compound 288] was 158 nM. `CCc1cc2ccc(C(C)(C#N)Cc3cc(OC)c(OC)c(OC)c3)cc2[nH]c1=O` (stereo not drawn) [Compound 289]: the IC50 was 158 nM. The figure for `CCc1cc2ccc(C(C)(C#N)Cc3cccc(/C=N/O)c3)cc2[nH]c1=O` (stereo not drawn) [Compound 299] is 31.6 nM. The value for `CCc1cc2ccc(C(C)(C#N)CN(C)Cc3ccc(C#N)cc3)cc2[nH]c1=O` (stereo not drawn) [Compound 300] was 158 nM; that for `CCc1cc2ccc(C(C)(C#N)CNCc3ccc(C#N)cc3)cc2[nH]c1=O` (stereo not drawn) [Compound 302] was 126 nM.

Take `Cc1cc2ccc(C(C)(C#N)Cc3cccc(Oc4ccccc4)c3)cc2[nH]c1=O` (stereo not drawn) [Compound 305]: the IC50 was 200 nM. The value for `CCc1cc2ccc(C(C)(C#N)Cc3nc(C#N)cc(OC)n3)cc2[nH]c1=O` (stereo not drawn) [Compound 313] was 100 nM; that for `CCc1cc2ccc(C(C)(C#N)Cc3cc(C#N)nc(OC)c3)cc2[nH]c1=O` (stereo not drawn) [Compound 314] was 50.1 nM; that for `CCc1cc2ccc(C(C)(C#N)Cc3cc(N(C)C)nc(C#N)n3)cc2[nH]c1=O` (stereo not drawn) [Compound 317] was 79.4 nM. The value for `CCc1cc2ccc(C(C)(C#N)Cc3nc(C#N)cc(N(C)C)n3)cc2[nH]c1=O` (stereo not drawn) [Compound 318] was 79.4 nM. The figure for `CCc1cc2ccc(C(C)(C#N)Cc3cc(C#N)nc(C)n3)cc2[nH]c1=O` (stereo not drawn) [Compound 319] is 200 nM; for `CCc1cc2ccc(C(C)(C#N)Cc3cc(N(C)C)nc(N(C)C)n3)cc2[nH]c1=O` (stereo not drawn) [Compound 320] it is 200 nM.

In the case of `CCc1cc2ccc(C(C)(C#N)Cc3cc(N(C)C)nc(C)n3)cc2[nH]c1=O` (stereo not drawn) [Compound 322], the IC50 was 200 nM. As to `CCc1cc2ccc(C(C)(C#N)Cc3cc(Cl)nc(N(C)C)c3)cc2[nH]c1=O` (stereo not drawn) [Compound 323], the IC50 was 79.4 nM. The figure for `CCc1cc2ccc(C(C)(C#N)Cc3cc(C#N)nc(N(C)C)c3)cc2[nH]c1=O` (stereo not drawn) [Compound 325] is 79.4 nM; for `CCc1cc2ccc(C(C)(C#N)Cc3cccc(NC)n3)cc2[nH]c1=O` (stereo not drawn) [Compound 339] it is 39.8 nM.

As for `CCc1cc2ccc(C(C)(C#N)Cc3ccc4c(c3)OC(F)(F)O4)cc2[nH]c1=O` (stereo not drawn) [Compound 346], the IC50 was 79.4 nM. As for `CCc1cc2ccc(C(C)(C#N)Cc3c4ccccc4nn3C)cc2[nH]c1=O` (stereo not drawn) [Compound 347], the IC50 is 158 nM. The value for `CCc1cc2ccc(C(C)(C#N)Cc3cc(OC)nc(OC)c3)cc2[nH]c1=O` (stereo not drawn) [Compound 350] was 39.8 nM; that for `CCc1cc2ccc(C(C)(C#N)Cc3cc(Cl)nc(OC)c3)cc2[nH]c1=O` (stereo not drawn) [Compound 351] was 63.1 nM.
